The source made the active and inactive calls. No cut-off for these calls is given here.
Legend:
HepG2 [1] = test: Induction of apoptosis in human HepG2 cells xenografted in BALB/c nude mouse at 15 to 30 mg/kg, ip administered every other day for 21 days by TUNEL staining based IHC analysis; type: functional, organism-based; conditions: dose 15-30 mg/kg, time 21.0 day
HepG2 [2] = test: Inhibition of cell proliferation in human HepG2 cells xenografted in BALB/c nude mouse at 15 to 30 mg/kg, ip administered every other day for 21 days by Ki67 staining based IHC analysis; type: functional, organism-based; conditions: dose 15-30 mg/kg, time 21.0 day
[3] = Metabolic stability in human liver microsomes assessed as intrinsic clearance measured per mg protein at 1 uM in presence of NADPH by LC-MS analysis; type: ADME, Microsome; conditions: read-out: CLH
HepG2 [4] = test: Antitumor activity against human HepG2 cells xenografted in BALB/c nude mouse assessed as tumor weight reduction administered intraperitoneally every other day for 21 days; type: functional; conditions: dose 15-30 mg/kg, route ip, time 21.0 day
HT-1080 [5] = test: Induction of ferroptosis in human HT-1080 cells assessed as cell death at 10 uM incubated for 24 hrs in presence of Trolox by MTT assay; type: functional, cell-based
HT-1080 [6] = test: Induction of ferroptosis in human HT-1080 cells assessed as cell death at 10 uM incubated for 24 hrs in presence of DFO by MTT assay; type: functional, cell-based
HT-1080 [7] = test: Induction of ferroptosis in human HT-1080 cells assessed as cell death at 10 uM incubated for 24 hrs in presence of Z-VAD-FMK by MTT assay; type: functional, cell-based
HT-1080 [8] = test: Induction of ferroptosis in human HT-1080 cells assessed as cell death at 5 uM incubated for 24 hrs in presence of Fer-1 by morphology based microscopy; type: functional
HT-1080 [9] = test: Induction of ferroptosis in human HT-1080 cells assessed as increase in lipid ROS accumulation at 5 uM incubated for 10 hrs in presence of Fer-1 by BODIPY-C11 probe based confocal laser scanning microscopy; type: functional, cell-based
HT-1080 [10] = test: Induction of ferroptosis in human HT-1080 cells assessed as increase in cytosolic ROS accumulation incubated for 10 hrs by H2DCFDA probe based flow cytometry; type: functional, cell-based; conditions: dose 0.5-5 µM
[11] = molecular target: T1, Cystine/glutamate transporter (Homo sapiens) (UniProt Q9UPY5); test: Inhibition of Xc- in human HT-1080 cells assessed as decrease in glutamate release incubated for 3 hrs by Amplex red assay; type: cell-based; conditions: dose 0.5-5 µM
T1 sequence (whole entry): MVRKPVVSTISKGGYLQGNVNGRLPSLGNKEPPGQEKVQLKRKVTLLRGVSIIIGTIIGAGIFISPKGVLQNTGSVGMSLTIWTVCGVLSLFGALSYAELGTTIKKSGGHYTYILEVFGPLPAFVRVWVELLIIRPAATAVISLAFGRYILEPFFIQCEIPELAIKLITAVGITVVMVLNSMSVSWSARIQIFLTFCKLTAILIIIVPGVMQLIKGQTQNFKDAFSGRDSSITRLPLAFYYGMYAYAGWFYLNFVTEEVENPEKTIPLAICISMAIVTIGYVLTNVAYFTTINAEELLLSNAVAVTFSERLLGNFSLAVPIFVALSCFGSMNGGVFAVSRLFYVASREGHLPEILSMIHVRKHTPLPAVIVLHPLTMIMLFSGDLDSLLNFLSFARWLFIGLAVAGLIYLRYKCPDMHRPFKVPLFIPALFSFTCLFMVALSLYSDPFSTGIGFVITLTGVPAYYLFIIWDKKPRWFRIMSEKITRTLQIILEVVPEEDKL

HepG2 [12] = test: Lethality in human HepG2 cells assessed as inhibition of cell viability incubated for 24 hrs by MTT assay; type: functional, cell-based; conditions: HepG2, 24 h
A-375 [13] = test: Lethality in human A-375 cells assessed as inhibition of cell viability incubated for 24 hrs by MTT assay; type: functional, cell-based; conditions: A-375, 24 h
786-0 = test: Lethality in human 786-0 cells assessed as decrease in cell viability at 10 uM incubated for 48 hrs by MTT assay; type: functional, cell-based
MDA-MB-231 [14] = test: Lethality in human MDA-MB-231 cells assessed as decrease in cell viability at 10 uM incubated for 48 hrs by MTT assay; type: functional, cell-based
HepG2 [15] = test: Lethality in human HepG2 cells assessed as decrease in cell viability at 10 uM incubated for 48 hrs by MTT assay; type: functional, cell-based
A-375 [16] = test: Lethality in human A-375 cells assessed as decrease in cell viability at 10 uM incubated for 48 hrs by MTT assay; type: functional, cell-based
HepG2 [17] = test: Lethality in human HepG2 cells assessed as decrease in cell viability at 10 uM incubated for 48 hrs in presence of Fer-1 by MTT assay; type: functional, cell-based
A-375 [18] = test: Lethality in human A-375 cells assessed as decrease in cell viability at 10 uM incubated for 48 hrs in presence of Fer-1 by MTT assay; type: functional, cell-based
DU-145 = test: Lethality in human DU-145 cells assessed as decrease in cell viability at 10 uM incubated for 48 hrs in presence of Fer-1 by MTT assay; type: functional, cell-based
MDA-MB-231 [19] = test: Lethality in human MDA-MB-231 cells assessed as decrease in cell viability at 10 uM incubated for 48 hrs in presence of DFO by MTT assay; type: functional, cell-based
HeLa = test: Lethality in human HeLa cells assessed as decrease in cell viability at 10 uM incubated for 48 hrs in presence of DFO by MTT assay; type: functional, cell-based
[20] = Toxicity in human AC16 cells upto 20 uM incubated for 48 hrs by MTT assay; type: cell-based; conditions: ac16 [human hybrid]
[21] = Toxicity in human NCM460 cells upto 20 uM incubated for 48 hrs by MTT assay; type: cell-based; conditions: ncm460, 48 h
[22] = Toxicity in BALB/c nude mouse xenografted with human HepG2 cells assessed as effect on serum AST level at 15 to 30 mg/kg, ip administered every other day for 21 days; type: organism-based; conditions: in vivo, 504 h, dose 15-30 mg/kg, time 21 day
[23] = Toxicity in BALB/c nude mouse xenografted with human HepG2 cells assessed as effect on serum ALP level at 15 to 30 mg/kg, ip administered every other day for 21 days; type: organism-based; conditions: in vivo, 504 h, dose 15-30 mg/kg, time 21 day
[24] = Toxicity in BALB/c nude mouse xenografted with human HepG2 cells assessed as effect on serum TBIL level at 15 to 30 mg/kg, ip administered every other day for 21 days; type: organism-based; conditions: in vivo, 504 h, dose 15-30 mg/kg, time 21 day
[25] = Toxicity in BALB/c nude mouse xenografted with human HepG2 cells assessed as effect on serum CREA level at 15 to 30 mg/kg, ip administered every other day for 21 days; type: organism-based; conditions: in vivo, 504 h, dose 15-30 mg/kg, time 21 day
[26] = Toxicity in BALB/c nude mouse xenografted with human HepG2 cells assessed as effect on serum LDH level at 15 to 30 mg/kg, ip administered every other day for 21 days; type: organism-based; conditions: in vivo, 504 h, dose 15-30 mg/kg, time 21 day
[27] = Toxicity in BALB/c nude mouse xenografted with human HepG2 cells assessed as histological change in heart at 15 to 30 mg/kg, ip administered every other day for 21 days by H and E staining based analysis; type: organism-based; conditions: in vivo, 504 h, dose 15-30 mg/kg, time 21 day
[28] = Toxicity in BALB/c nude mouse xenografted with human HepG2 cells assessed as histological change in liver at 15 to 30 mg/kg, ip administered every other day for 21 days by H and E staining based analysis; type: organism-based; conditions: in vivo, 504 h, dose 15-30 mg/kg, time 21 day

Question: What does the source list for `CN(C)S(=O)(=O)c1ccc(N2CCC(Cn3c(C(F)(F)F)nc4ccccc43)CC2)cc1`?
Answer: Activity (HepG2 [1]): inactive; inhibition (HepG2 [2]): Active; microsomal CLint at 1 µM [3]: 88.6 µL/min/mg; Activity (HepG2 [4]): Dose-Dependent Effect; Activity (HT-1080 [5]): inactive; Activity (HT-1080 [6]): inactive; Activity (HT-1080 [7]): Active; Activity (HT-1080 [8]): inactive; Activity (HT-1080 [9]): inactive; Activity (HT-1080 [10]): Dose-Dependent Effect; inhibition [11]: Dose-Dependent Effect; IC50 (HepG2 [12]): 1.33 µM; IC50 (A-375 [13]): 2.31 µM; Activity (786-0): Active; Activity (MDA-MB-231 [14]): Active; Activity (HepG2 [15]): Active; Activity (A-375 [16]): Active; Activity (HepG2 [17]): inactive; Activity (A-375 [18]): inactive; Activity (DU-145): inactive; Activity (MDA-MB-231 [19]): inactive; Activity (HeLa): inactive; Activity [20]: Non-Toxic; Activity [21]: Non-Toxic; Activity [22]: Non-Toxic; Activity [23]: Non-Toxic; Activity [24]: Non-Toxic; Activity [25]: Non-Toxic; Activity [26]: Non-Toxic; Activity [27]: Non-Toxic; Activity [28]: Non-Toxic

From ChEMBL document CHEMBL5385865, “Discovery and optimization of 2-(trifluoromethyl)benzimidazole derivatives as novel ferroptosis inducers in vitro and in vivo” (Eur J Med Chem, 2023)
